{
  "source": "ChEMBL document CHEMBL1828524",
  "about": "“Monoamine oxidase inhibition by selected anilide derivatives” (Eur J Med Chem, 2011)",
  "key": {"[1]": {"target": "T1, Amine oxidase [flavin-containing] B (Homo sapiens, UniProt P27338)", "T1 sequence (P27338 whole entry)": "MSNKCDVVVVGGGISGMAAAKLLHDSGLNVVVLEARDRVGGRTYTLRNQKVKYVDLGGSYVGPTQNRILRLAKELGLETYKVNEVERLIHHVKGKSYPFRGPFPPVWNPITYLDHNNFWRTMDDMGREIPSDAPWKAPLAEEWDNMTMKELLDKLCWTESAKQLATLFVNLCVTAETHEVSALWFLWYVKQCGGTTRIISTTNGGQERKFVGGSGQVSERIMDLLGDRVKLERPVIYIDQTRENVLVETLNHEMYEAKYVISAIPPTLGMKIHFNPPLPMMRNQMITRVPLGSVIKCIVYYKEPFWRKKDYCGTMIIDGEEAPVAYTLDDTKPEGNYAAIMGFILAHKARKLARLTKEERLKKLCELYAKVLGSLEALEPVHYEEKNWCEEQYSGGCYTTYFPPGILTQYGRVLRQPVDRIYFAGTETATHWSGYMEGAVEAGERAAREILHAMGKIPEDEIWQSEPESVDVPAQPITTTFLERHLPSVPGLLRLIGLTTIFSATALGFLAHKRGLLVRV", "assay": "Inhibition of human recombinant MAO-B assessed as oxidation of kynuramine to 4-hydroxyquinoline after 20 mins; call rule not given here"}, "[2]": {"target": "T2, Amine oxidase [flavin-containing] A (Homo sapiens, UniProt P21397)", "T2 sequence (P21397 whole entry)": "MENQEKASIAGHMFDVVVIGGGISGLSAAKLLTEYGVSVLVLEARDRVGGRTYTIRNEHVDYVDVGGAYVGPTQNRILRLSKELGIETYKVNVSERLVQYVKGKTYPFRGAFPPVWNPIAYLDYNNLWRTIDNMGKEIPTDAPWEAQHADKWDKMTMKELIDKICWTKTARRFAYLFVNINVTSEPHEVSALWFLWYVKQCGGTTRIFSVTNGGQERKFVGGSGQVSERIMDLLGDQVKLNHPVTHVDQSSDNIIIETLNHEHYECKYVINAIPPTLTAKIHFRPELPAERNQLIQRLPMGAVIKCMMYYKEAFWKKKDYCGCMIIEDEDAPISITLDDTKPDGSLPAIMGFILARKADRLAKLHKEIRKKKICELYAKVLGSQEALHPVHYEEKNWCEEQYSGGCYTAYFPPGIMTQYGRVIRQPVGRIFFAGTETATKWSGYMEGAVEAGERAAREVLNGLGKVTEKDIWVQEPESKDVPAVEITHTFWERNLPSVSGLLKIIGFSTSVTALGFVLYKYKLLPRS", "assay": "Inhibition of human recombinant MAO-A assessed as oxidation of kynuramine to 4-hydroxyquinoline after 20 mins"}, "[3]": {"target": "T2, Amine oxidase [flavin-containing] A", "assay": "Inhibition of human recombinant MAO-A assessed as oxidation of kynuramine to 4-hydroxyquinoline at 100 uM after 20 mins"}},
  "data": [
    {"smiles": "O=C(/C=C/c1ccccc1)Nc1cccc(Br)c1", "values": [
      {"measurement": "IC50", "setting": "[1]", "value": 0.447, "unit": "µM"},
      {"measurement": "IC50", "setting": "[2]", "value": 16.7, "unit": "µM"}
    ]},
    {"smiles": "O=C(/C=C/C=C/c1ccccc1)Nc1ccccc1", "values": [
      {"measurement": "inhibition (INH)", "setting": "[3]", "value": "Not Active"},
      {"measurement": "IC50", "setting": "[1]", "value": 5.16, "unit": "µM"}
    ]},
    {"smiles": "Cc1cccc(NC(=O)/C=C/C=C/c2ccccc2)c1", "values": [
      {"measurement": "IC50", "setting": "[1]", "value": 6.65, "unit": "µM"},
      {"measurement": "IC50", "setting": "[2]", "value": 335, "unit": "µM"}
    ]},
    {"smiles": "O=C(/C=C/C=C/c1ccccc1)Nc1cccc(Cl)c1", "values": [
      {"measurement": "IC50", "setting": "[1]", "value": 2.2, "unit": "µM"},
      {"measurement": "IC50", "setting": "[2]", "value": 98.2, "unit": "µM"}
    ]},
    {"smiles": "O=C(/C=C/C=C/c1ccccc1)Nc1cccc(Br)c1", "values": [
      {"measurement": "IC50", "setting": "[1]", "value": 2.73, "unit": "µM"},
      {"measurement": "IC50", "setting": "[2]", "value": 105, "unit": "µM"}
    ]},
    {"smiles": "O=C(C/C=C/c1ccccc1)Nc1ccccc1", "values": [
      {"measurement": "IC50", "setting": "[1]", "value": 33.2, "unit": "µM"},
      {"measurement": "IC50", "setting": "[2]", "value": 297, "unit": "µM"}
    ]},
    {"smiles": "Cc1cccc(NC(=O)C/C=C/c2ccccc2)c1", "values": [
      {"measurement": "IC50", "setting": "[1]", "value": 48.1, "unit": "µM"},
      {"measurement": "IC50", "setting": "[2]", "value": 74.8, "unit": "µM"}
    ]},
    {"smiles": "O=C(C/C=C/c1ccccc1)Nc1cccc(Cl)c1", "values": [
      {"measurement": "IC50", "setting": "[1]", "value": 23.5, "unit": "µM"},
      {"measurement": "IC50", "setting": "[2]", "value": 58.4, "unit": "µM"}
    ]},
    {"smiles": "O=C(C/C=C/c1ccccc1)Nc1cccc(Br)c1", "values": [
      {"measurement": "IC50", "setting": "[1]", "value": 30.9, "unit": "µM"},
      {"measurement": "IC50", "setting": "[2]", "value": 34.5, "unit": "µM"}
    ]},
    {"smiles": "O=C(/C=C/c1cccc(O)c1)Nc1cccc(Br)c1", "values": [
      {"measurement": "inhibition (INH)", "setting": "[3]", "value": "Not Active"},
      {"measurement": "IC50", "setting": "[1]", "value": 1.01, "unit": "µM"}
    ]},
    {"smiles": "O=C(/C=C/c1ccc(O)cc1)Nc1cccc(Br)c1", "values": [
      {"measurement": "IC50", "setting": "[1]", "value": 0.026, "unit": "µM"},
      {"measurement": "IC50", "setting": "[2]", "value": 35.6, "unit": "µM"}
    ]},
    {"smiles": "N#Cc1cccc(/C=C/C(=O)Nc2cccc(Cl)c2)c1", "values": [
      {"measurement": "IC50", "setting": "[1]", "value": 0.09, "unit": "µM"},
      {"measurement": "IC50", "setting": "[2]", "value": 13.5, "unit": "µM"}
    ]},
    {"smiles": "N#Cc1cccc(/C=C/C(=O)Nc2cccc(Br)c2)c1", "values": [
      {"measurement": "IC50", "setting": "[1]", "value": 0.059, "unit": "µM"},
      {"measurement": "IC50", "setting": "[2]", "value": 27.2, "unit": "µM"}
    ]},
    {"smiles": "N#Cc1ccc(/C=C/C(=O)Nc2cccc(Cl)c2)cc1", "values": [
      {"measurement": "IC50", "setting": "[1]", "value": 0.407, "unit": "µM"},
      {"measurement": "IC50", "setting": "[2]", "value": 184, "unit": "µM"}
    ]},
    {"smiles": "N#Cc1ccc(/C=C/C(=O)Nc2cccc(Br)c2)cc1", "values": [
      {"measurement": "IC50", "setting": "[1]", "value": 0.289, "unit": "µM"},
      {"measurement": "IC50", "setting": "[2]", "value": 36.2, "unit": "µM"}
    ]},
    {"smiles": "Cc1cccc(NC(=O)/C=C/c2ccccc2)c1", "note": "[N-M-TOLYLCINNAMAMIDE]", "values": [
      {"measurement": "IC50", "setting": "[1]", "value": 4.5, "unit": "µM"},
      {"measurement": "IC50", "setting": "[2]", "value": 48.1, "unit": "µM"}
    ]}
  ]
}
